Activity calls are given as the source filed them.
Legend:
Caspase-6 = molecular target: T1, Caspase-6 (Homo sapiens, UniProt P55212); test: inhibition of CASP6 peptide cleavage – biochemical, VEID-R110 fluorescence, cherry-pick, dose response (AID 720632)
T1 sequence (P55212 whole entry): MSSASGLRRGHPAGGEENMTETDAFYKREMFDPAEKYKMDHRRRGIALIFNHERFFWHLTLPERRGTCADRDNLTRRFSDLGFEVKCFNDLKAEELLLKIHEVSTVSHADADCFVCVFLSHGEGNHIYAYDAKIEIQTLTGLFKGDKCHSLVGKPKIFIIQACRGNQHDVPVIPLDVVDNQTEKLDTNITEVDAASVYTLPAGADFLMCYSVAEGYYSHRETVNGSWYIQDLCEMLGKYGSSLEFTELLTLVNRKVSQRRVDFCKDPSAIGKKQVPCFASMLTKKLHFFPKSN

[1] = luciferase reporter signal suppression in cells – H4 neuroglioma cells, luminescence, dose response (AID 1990); type: functional, cell-based
[2] = molecular target: FAD-linked sulfhydryl oxidase ALR (Homo sapiens, UniProt P55789); test: ALR-catalysed DTT oxidation blockers – biochemical, H2O2 detection, luminescence, cherry-pick, dose response (AID 493248)
FAD-linked sulfhydryl oxidase ALR, sequence (P55789 whole entry): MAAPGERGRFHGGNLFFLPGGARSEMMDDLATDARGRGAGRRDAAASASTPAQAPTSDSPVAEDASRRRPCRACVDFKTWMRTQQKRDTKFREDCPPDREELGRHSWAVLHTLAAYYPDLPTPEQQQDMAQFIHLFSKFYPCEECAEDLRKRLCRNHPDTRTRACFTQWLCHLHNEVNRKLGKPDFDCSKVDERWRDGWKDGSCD

[3] = Luminescence Cell-Based Dose Response HTS to Identify Inhibitors of 5'UTR Stem-Loop Driven Prion Protein mRNA Translation in H4 Neuroglioblastoma Cells. [Related pubchem assays: 1827 (Project Summary), 1813 (Primary HTS)]; type: functional
[4] = alpha-synuclein stem-loop luciferase translation blockers – H4 neuroglioma cells, luminescence, confirmation (AID 1988); type: functional, cell-based
Large T antigen = Large T antigen (Simian virus 40, UniProt P03070); type: functional, Betapolyomavirus macacae;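 also: Confirmatory-stage PubChem screen for compounds that inhibit SV40 T antigen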
Large T antigen, sequence (P03070 whole entry): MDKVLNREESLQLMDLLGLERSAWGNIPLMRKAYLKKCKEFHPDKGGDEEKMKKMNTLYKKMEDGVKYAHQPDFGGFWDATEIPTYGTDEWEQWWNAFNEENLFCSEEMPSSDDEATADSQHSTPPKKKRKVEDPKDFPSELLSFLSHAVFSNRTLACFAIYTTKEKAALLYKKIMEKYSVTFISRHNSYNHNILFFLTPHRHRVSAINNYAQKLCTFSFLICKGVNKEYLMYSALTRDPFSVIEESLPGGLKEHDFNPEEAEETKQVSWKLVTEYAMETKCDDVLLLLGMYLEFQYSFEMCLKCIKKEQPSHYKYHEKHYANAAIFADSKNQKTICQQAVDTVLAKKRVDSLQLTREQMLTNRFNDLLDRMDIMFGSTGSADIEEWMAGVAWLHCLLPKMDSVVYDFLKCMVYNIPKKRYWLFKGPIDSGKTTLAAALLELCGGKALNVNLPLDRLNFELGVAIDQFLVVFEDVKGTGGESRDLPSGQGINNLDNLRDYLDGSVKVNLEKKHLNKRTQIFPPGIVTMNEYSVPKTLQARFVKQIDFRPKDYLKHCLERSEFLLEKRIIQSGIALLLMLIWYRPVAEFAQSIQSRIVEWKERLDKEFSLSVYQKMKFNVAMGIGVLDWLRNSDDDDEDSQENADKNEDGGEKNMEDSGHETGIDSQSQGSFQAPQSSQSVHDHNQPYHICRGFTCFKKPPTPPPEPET

[5] = molecular target: Induced myeloid leukemia cell differentiation protein Mcl-1 (Homo sapiens, UniProt Q07820); type: functional
Induced myeloid leukemia cell differentiation protein Mcl-1, sequence (Q07820 whole entry): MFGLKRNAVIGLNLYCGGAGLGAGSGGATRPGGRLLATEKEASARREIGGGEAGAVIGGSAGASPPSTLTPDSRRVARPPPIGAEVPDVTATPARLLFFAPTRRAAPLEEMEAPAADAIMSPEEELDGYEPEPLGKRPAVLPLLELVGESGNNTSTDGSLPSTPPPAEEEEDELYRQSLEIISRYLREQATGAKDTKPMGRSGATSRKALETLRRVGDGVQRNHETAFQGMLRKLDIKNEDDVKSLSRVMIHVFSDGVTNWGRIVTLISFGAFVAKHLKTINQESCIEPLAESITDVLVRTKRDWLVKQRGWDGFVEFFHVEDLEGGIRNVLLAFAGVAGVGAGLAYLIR

[6] = molecular target: T2, Calpain-2 catalytic subunit (Sus scrofa, UniProt P43367); test: m-calpain protease blockers, concentration series – biochemical, fluorogenic peptide substrate, dose response (AID 1420); type: functional
T2 sequence (P43367 whole entry): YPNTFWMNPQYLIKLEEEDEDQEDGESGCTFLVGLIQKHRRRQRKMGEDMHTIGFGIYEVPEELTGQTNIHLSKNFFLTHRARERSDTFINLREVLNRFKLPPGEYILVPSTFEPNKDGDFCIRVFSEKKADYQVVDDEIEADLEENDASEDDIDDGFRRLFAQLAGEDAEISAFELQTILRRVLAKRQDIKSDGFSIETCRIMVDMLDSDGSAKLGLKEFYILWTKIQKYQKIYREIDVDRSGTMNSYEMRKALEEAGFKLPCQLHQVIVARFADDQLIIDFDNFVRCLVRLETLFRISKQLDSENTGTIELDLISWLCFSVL

BJ [7] = test: cells; type: functional, cell-based; details: Homo sapiens
[8] = HEK-293T viability loss after treatment – luminescence, T-cell screen hits, cytotoxicity control for TCR NF-kB inhibitor project, dose response (AID 489026); type: functional, cell-based;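 also: cells exposed to compound about 14 hours before the viability readout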
[9] = Luminescence Cell-Based Dose Retest to Confirm Inhibitors of Cancer Stem Cells. [Related pubchem assays (depositor defined):AID2717, AID2721]; type: functional; details: Homo sapiens
BJ [10] = test: BJ-TERT-LT-ST fibroblast viability loss – cell-based, RAS-independent, luminescence, dose response (AID 1935); type: functional; details: Homo sapiens;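 also: BJ fibroblasts immortalized with TERT plus LT and ST oncogenes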
BJ [11] = test: BJ-TERT fibroblast viability loss – cell-based, RAS-independent, luminescence, dose response (AID 1933); type: functional; details: Homo sapiens
[12] = DRD fibroblast viability loss – cell-based, non-viral oncogenic, luminescence, dose response (AID 1934); type: functional; details: Homo sapiens
Cytochrome P450 2C19 = Cytochrome P450 2C19 (Homo sapiens, UniProt P33261); test: Cytochrome panel assay with activity outcomes. Panel member name: p450-cyp2c19 Compounds with AC50 equal or less than 10 uM are considered active; type: functional; details: read-out: AC50
Cytochrome P450 2C19, sequence (P33261 whole entry): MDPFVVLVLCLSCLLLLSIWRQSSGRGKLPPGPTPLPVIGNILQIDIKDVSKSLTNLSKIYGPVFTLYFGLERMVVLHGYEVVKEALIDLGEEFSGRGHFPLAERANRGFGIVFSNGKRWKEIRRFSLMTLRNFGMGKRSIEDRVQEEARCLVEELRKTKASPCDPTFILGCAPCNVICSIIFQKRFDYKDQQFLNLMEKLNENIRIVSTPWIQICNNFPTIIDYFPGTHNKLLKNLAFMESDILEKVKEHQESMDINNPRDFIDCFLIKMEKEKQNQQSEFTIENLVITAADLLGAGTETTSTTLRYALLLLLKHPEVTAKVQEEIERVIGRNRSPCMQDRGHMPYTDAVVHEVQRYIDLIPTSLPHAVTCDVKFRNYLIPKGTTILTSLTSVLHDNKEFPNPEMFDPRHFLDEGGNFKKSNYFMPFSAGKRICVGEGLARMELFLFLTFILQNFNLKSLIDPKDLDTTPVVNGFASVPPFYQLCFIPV

**Q.** For `Nc1ccc(OC(=O)Nc2ccc(O)cc2)cc1`, which AC50 (Caspase-6) is on record?
**A.** 18.7 µM (active)

**Q.** What about the EC50 [1] of the same compound?
**A.** 11.2 µM (active)

**Q.** And the AC50 [2]?
**A.** 1.38 µM (active)

**Q.** And the EC50 [3]?
**A.** 11.7 µM (active)

**Q.** And the EC50 [4]?
**A.** 9.76 µM (active)

**Q.** And the IC50 (Large T antigen)?
**A.** 6.52 µM (active)

**Q.** With `OC1=C2C(=Nc3ccc4ncccc4c3C2c2ccc(O)c(O)c2)CCC1` (configuration not stated) as the compound, how does the IC50 [5] read?
**A.** 4.38 µM (active)

**Q.** With `Cc1ccccc1NC(=S)NCCC(c1ccccc1)c1ccccc1` as the compound, how does the IC50 [6] read?
**A.** 2.48 µM (not active)

**Q.** Which results are given for `CCCC(=O)Nc1nc2ccc(NC(=O)c3c(F)c(F)c(OC)c(F)c3F)cc2s1`?
**A.** EC50 (BJ [7]): > 150 µM (not active); IC50 [8]: > 80 µM (inactive); AC50 [9]: 0.367 µM (active); EC50 (BJ [10]): 77.5 µM (inconclusive); EC50 (BJ [11]): 4.47 µM (active); EC50 [12]: 2.2 µM (active)

**Q.** For `COc1ccc(C(=O)Nc2cccc(-c3cc4ccccc4oc3=O)c2)cc1[N+](=O)[O-]`, which IC50 [6] is on record?
**A.** 12.3 µM (not active)

**Q.** For `Cc1ccc(NC(S)=NC(C)CCc2ccccc2)cc1C` (configuration not stated), which IC50 [6] is on record?
**A.** 17.3 µM (not active)

**Q.** For `Oc1ccccc1C1Nc2cccc3cccc(c23)N1`, which AC50 (Cytochrome P450 2C19) is on record?
**A.** 3.16 µM (inconclusive)

**Q.** What about the IC50 [5] of the same compound?
**A.** 3.25 µM (active)

**Q.** With `O=C(COC(=O)Cc1ccccc1)Nc1cc(S(=O)(=O)N2CCCCC2)ccc1Cl` as the compound, how does the AC50 (Caspase-6) read?
**A.** 38.3 µM (active)

**Q.** With `COc1cc(/C=C2\SC(=S)N(CC(=O)O)C2=O)ccc1OS(=O)(=O)c1ccc(C)cc1` as the compound, how does the AC50 (Caspase-6) read?
**A.** 46.2 µM (active)

**Q.** And the AC50 [2]?
**A.** 2.07 µM (active)

**Q.** With `Nc1cc2cccnc2cc1Cl` as the compound, how does the AC50 (Caspase-6) read?
**A.** 25.6 µM (active)

**Q.** What does the source list for `COc1ccc(/C=N/Nc2nncc3ccccc23)cc1`?
**A.** EC50 (BJ [7]): 9.05 µM (active); EC50 (BJ [10]): 18.6 µM (active); EC50 (BJ [11]): 8.72 µM (active); EC50 [12]: 7.41 µM (active)

**Q.** Which IC50 [6] does the source give for `C/C(=N\OCC(=O)NC12CC3CC(CC(C3)C1)C2)c1cc2ccccc2o1` here?
**A.** 8.83 µM (not active)

From ChEMBL document CHEMBL1201862, “PubChem BioAssay data set” (2004)
